Tests used:
[1] = Intranasal bioavailability of Hydrocodone vs. Galactose Hydrocodone
[2] = Oral bioavailability of Hydrocodone vs. Galactose-Hydrocodone
[3] = Intravenous bioavailability of Hydrocodone vs. Ribose Hydrocodone
[4] = Kitchen test stability of conjugate (release of hydrocodone on heating in pH solutions); assay type: physicochemical; details: for Percent Hydrocodone released: 80-90° C.
Protocol: To determine the accessibility of active narcotic from the synthetic conjugates, an attempt was made to release the narcotic from its conjugate. In a kitchen test, we determined the stability of the conjugates when subjected to conditions that would be available to any drug addict. Thus, the kitchen test is a model of “street-safeness” for the narcotics conjugates. The conjugates were heated in a water bath (80-90° C.) in a pH range (1-12) over a 1 hour time course. This pH range constitutes about any solution that can be found commercially at any grocery or drug store. The release of the narcotic from the conjugate was monitored by HPLC and quantified with a dose-response calibration curve of the parent narcotic.
Using only solutions that would be available to an addict, conjugates were dissolved in water. Water insoluble conjugates were either (a) dissolved in a minimum amount (≦5% v/v) of organic solvent [e.g., DMSO, methanol, or ethanol], (b) added as a suspension to the assay, or (c) dissolved completely in chloroform, and aliquoted to a test tube where the chloroform is evaporated, leaving only a known amount of conjugate. Upon preparation of the conjugate, the conjugate is added to the various pH solutions and heated for 0, 5, 15, or 60 minutes. At the indicated time point, each test tube was removed from the water bath and neutralized with a chilled phosphate buffer (100 mM, pH 7, 4° C.).
The kitchen test proceeds as follows: • 1. pH solutions [1, 4, 7, 9, 12] prepared with HPLC grade H2O and titrated with NaOH or HCl • 2. prepare hot water bath, keeping temperature at 80-90° C. • 3. conjugates prepared at a concentration of 1 mg/ml as indicated above • 4. 250 μl of conjugate added to 750 μl of pH solutions (final assay volume is 1 ml; if conjugate has been evaporated from CHCl3, add 1 ml of pH solution to test tube) • 5. immediately following the addition of conjugate to pH solution, place test tube in hot water bath (80-90° C.) • 6. at indicated time point, remove test tubes from heat and neutralize with 1 ml of chilled phosphate buffer [0 time point is not heated, but immediately neutralized with phosphate buffer after the addition of conjugate to each pH solution] • 7. before aliquoting each sample for HPLC analysis, the volume of each tube is adjusted to 2 ml to account for changes in concentration from evaporation
Following HPLC analysis, the amount of released narcotic was extrapolated from a calibration curve of the parent drug and plotted as % narcotic released (w/w, based upon theoretical loading of conjugated species) vs. time.

[5] = Intranasal bioavailability of Hydrocodone vs. Ribose Hydrocodone
[6] = Oral bioavailability of Hydrocodone vs. Ribose-Hydrocodone (serum levels)

Question: What does the source list for `COc1ccc2c3c1OC1C(OC(=O)OC[C@H]4O[C@H](O)[C@H](O)[C@@H](O)[C@H]4O)=CCC4[C@@H](C2)[N@@H+](C)CC[C@]314.[Cl-]` (some centres unmarked) [Galactose-Hydrocodone, Galacto-Hydrocodone]?
Answer: Bioavailability compared to Hydrocodone-Bitartarate [1]: marginally decreased; Bioavailability compared to Hydrocodone-Bitartarate [2]: approached that of Hydrocodone-Bitaratarate

Question: Which “Bioavailability compared to Hydrocodone-Bitartarate” value [3] does the source give for `COc1ccc2c3c1OC1C(OC(=O)OC[C@H]4OC(O)C(O)[C@H]4O)=CCC4[C@@H](C2)[N@@H+](C)CC[C@]314.[Cl-]` (some centres unmarked) [Ribose-Hydrocodone, Ribo-Hydrocodone] here?
Answer: decreased

Question: What about the “clearance rate” value [3] of the same compound?
Answer: increased clearance rate

Question: And the “Percent Hydrocodone released” value ([4]; pH 1, 5 minutes, relative to zero hour level of free Hydrocodone)?
Answer: 8%

Question: What about the “Percent Hydrocodone released” value ([4]; pH 1, 15 minutes, relative to zero hour level) of the same compound?
Answer: 18%

Question: And the “Percent Hydrocodone released” value ([4]; pH 1, 60 minutes, relative to zero hour level)?
Answer: 27.8%

Question: What about the “Percent Hydrocodone released” value ([4]; pH 4, 5 minutes, relative to zero hour level) of the same compound?
Answer: 11%

Question: What about the “Percent Hydrocodone released” value ([4]; pH 4, 15 minutes, relative to zero hour level) of the same compound?
Answer: 12.6%

Question: What about the “Percent Hydrocodone released” value ([4]; pH 4, 60 minutes, relative to zero hour level) of the same compound?
Answer: 19.6%

Question: And the “Percent Hydrocodone released” value ([4]; pH 7, 5 minutes, relative to zero hour level)?
Answer: 12%

Question: What about the “Percent Hydrocodone released” value ([4]; pH 7, 15 minutes, relative to zero hour level) of the same compound?
Answer: 16%

Question: What about the “Percent Hydrocodone released” value ([4]; pH 7, 60 minutes, relative to zero hour level) of the same compound?
Answer: 23.4%

Question: What about the “Percent Hydrocodone released” value ([4]; pH 9, 5 minutes, relative to zero hour level) of the same compound?
Answer: 9%

Question: What about the “Percent Hydrocodone released” value ([4]; pH 9, 15 minutes, relative to zero hour level) of the same compound?
Answer: 11%

Question: What about the “Percent Hydrocodone released” value ([4]; pH 9, 60 minutes, relative to zero hour level) of the same compound?
Answer: 21%

Question: And the “hydrocodone released from the conjugate” value ([4]; pH 12)?
Answer: less than half

Question: And the “Percent Hydrocodone released” value ([4]; pH 12, 5 minutes, relative to zero hour level)?
Answer: 44%

Question: What about the “Percent Hydrocodone released” value ([4]; pH 12, 15 minutes, relative to zero hour level) of the same compound?
Answer: 33%

Question: What about the “Percent Hydrocodone released” value ([4]; pH 12, 60 minutes, relative to zero hour level) of the same compound?
Answer: 41.1%

Question: What about the “amount of hydrocodone released” value ([4]; pHs other than pH 12, after one hour at 90° C.) of the same compound?
Answer: ≤ 27.8%

Question: What about the “Bioavailability compared to Hydrocodone-Bitartarate” value [5] of the same compound?
Answer: decreased

Question: And the “Bioavailability compared to Hydrocodone-Bitartarate” value [6]?
Answer: approximately equal

Reference: patent publication US8133881B2, “Carbohydrate conjugates to prevent abuse of controlled substances” (Shire LLC, priority 2003, dated 2012)
